Assay results as given in publication PMC2653189 (PLoS ONE, 2009).

Tests used:
MDA-MB-468 = experiment: Breast cancer cell line apoptosis assay (nucleosome ELISA); format: cell-based; settings: Homo sapiens, 24 hr, read-out: EC50 apoptosis induction
Protocol: (§1) Human breast carcinoma cell lines MDA-MB-468, MDA-MB-231, MBA-MD-435 and MCF7 were kindly provided by Dr. Powel H. Brown (Breast Cancer Center, Baylor College of Medicine). Breast cancer cell line, MDA-MB-453 was kindly provided by Dr. Shou Jiang (Breast Cancer Center, Baylor College of Medicine). All cell lines were grown in DMEM medium supplemented with 10% fetal bovine serum (FBS), 25,000 units penicillin G, 25,000 µg streptomycin, and 131.4 mg L-Glutamine and cultured in the incubator under the condition of 95% air, 5% CO2 at 37°C [33]. Cells were seeded at 2,500 cells/cm^2 into 12-well plates. At 80% confluency, cells were washed with PBS and supplemented with fresh medium containing compound or the topoisomerase I-inhibitor, camptothecin, at 0, 0.1, 0.3, 1, 3, 10, 30, 100, 300 µM. At 24 hours, treatment was terminated by removing the medium from each well. Cells were lysed with cell lysis buffer (600 µl for 30 minutes at 25°C). Cell lysate (200 µl) was centrifuged at 200 g for 10 minutes and 20 µl of each supernatant was assayed for nucleosomes using the Cell Death Detection ELISA (Roche Applied Science) as described by the manufacturer. The percent maximum nucleosome level was calculated by dividing the nucleosome level by the maximum nucleosome level achieved in the assay and multiplying by 100. This value was plotted as a function of the log compound concentration and the best-fitting curve and EC50 value determined using 4-Parameter Logistic Model/Dose Response/XLfit 4.2, IDBS software.
(§2) Figure 5 Apoptosis induction of breast cancer cell lines by compounds; selective apoptosis of cell lines that are Stat3 dependent. MDA-MB-468 (panel A), MDA-MB-231 (panel B), MDA-MB-435 (panel C), MCF7 (panel D) and MDA-MB-453 (panel E) were seeded in 12-well plates, grown overnight then treated with the indicated compound for 24 hr. Cells were centrifuged and the supernatants assayed for nucleosome levels by ELISA. The percent maximum nucleosome level was calculated (nucleosome level ÷ maximum nucleosome level achieved in the assay ×100) and plotted as a function of the log compound concentration. The best-fitting curve was determined using 4-ParameterLogistic Model/Dose Response One Site/XLfit 4.2, IDBS software and was used to determine the EC50 value (Table 3).

MDA-MB-231 = experiment: as above; format: cell-based; settings: Homo sapiens, 24 hr, read-out: EC50 apoptosis induction
Protocol: as §1, §2

MDA-MB-435 = experiment: as above; format: cell-based; settings: Homo sapiens, 24 hr, read-out: EC50 apoptosis induction
Protocol: as §1, §2

MCF7 = experiment: as above; format: cell-based; settings: Homo sapiens, 24 hr, read-out: EC50 apoptosis induction
Protocol: as §1, §2

MDA-MB-453 = experiment: as above; format: cell-based; settings: Homo sapiens, 24 hr, read-out: EC50 apoptosis induction
Protocol: as §1, §2

[1] = system: IL-6-mediated Stat3 nuclear translocation (GFP-Stat3α); experiment: HTFM nuclear translocation assay in MEF/GFP-Stat3α cells; format: cell-based, murine; settings: Mus musculus, compound 1 hour, then IL-6 200 ng/ml and IL-6sR 250 ng/ml 30 min, read-out: HTFM IC50, inhibition of IL-6-mediated Stat3 nuclear translocation
Protocol: Confocal and high-throughput fluorescence microscopy (HTFM) of MEF/GFP-Stat3α cells were performed as described. Briefly, for confocal fluorescence microscopy, cells were grown in 6-well plates containing a cover slip. For HTFM, cells were seeded into 96-well CC3 plates at a density of 5,000 cells/well using an automated plating system. Cells were cultured under standard conditions until 85–90% confluent. Cells were pre-treated with compound for 1 hour at 37°C then stimulated with IL-6 (200 ng/ml) and IL-6sR (250 ng/ml) for 30 minutes to provide optimal Stat3 activation and nuclear translocation in these cells, as described. Cells were fixed with 4% formaldehyde in PEM Buffer (80 mM Potassium PIPES, pH 6.8, 5 mM EGTA pH 7.0, 2 mM MgCl2) for 30 minutes at 4°C, quenched in 1 mg/ml of NaBH4 (Sigma) in PEM buffer and counterstained for 1 min in 4,6-diamidino-2-phenylindole (DAPI; Sigma; 1 mg/ml) in PEM buffer. Cover slips were examined by confocal fluorescent microscopy. Plates were analyzed by automated HTFM using the Cell Lab IC Image Cytometer (IC100) platform and Cytoshop Version 2.1 analysis software (Beckman Coulter). Nuclear translocation is quantified by using the fraction localized in the nucleus (FLIN) measurement. FLIN values were normalized by subtracting the FLIN for unstimulated cells then dividing this difference by the maximum difference (delta, Δ) in FLIN (FLIN in cells stimulated with IL-6/sIL-6R in the absence of compound minus FLIN of unstimulated cells). This ratio was multiplied by 100 to obtain the percentage of maximum difference in FLIN and was plotted, where indicated, as a function of the log compound concentration. The best-fitting curve and IC50 value were determined using 4-Parameter Logistic Model/Dose Response/XLfit 4.2, IDBS software.
Figure 4 Inhibition of cytoplasmic-to-nuclear translocation of Stat3 assessed by confocal and high-throughput fluorescence microscopy (HTFM). […] Coverslips were examined by confocal fluorescent microscopy using filters to detect GFP (column one), DAPI (column two) or both (merge; column three). In panel B, MEF-GFP-Stat3 cells were grown in 96-well plates with optical glass bottoms and pre-treated with the indicated compound at the indicated concentrations in quadruplicate for 1 hour then stimulated with IL-6 (200 ng/ml) and IL-6sR (250 ng/ml) for 30 minutes. Cells were fixed and the plates were examined by high-throughput microscopy to determine the fluorescence intensity in the nucleus (FLIN). The percent of maximum change (delta, Δ) in FLIN was calculated as described in the Methods and plotted as a function of the log of the compound concentration. […] Best-fit curves were determined using 4-Parameter Logistic Model/Dose Response/XLfit 4.2, IDBS software and were used to calculate the IC50 values (Table 2).

EC50 (MDA-MB-468): 2.28 µM
EC50 (MDA-MB-231): 26.9 µM
EC50 (MDA-MB-435): 16.5 µM
EC50 (MCF7): > 300 µM
EC50 (MDA-MB-453): > 300 µM
IC50 [1]: 131 µM
SMILES: O=C(O)c1ccc(C=CC(=O)c2ccc3c(c2)OCCO3)cc1 [Cpd3, 4-[3-(2,3-dihydro-1,4-benzodioxin-6-yl)-3-oxo-1-propen-1-yl]benzoic acid]
